# Values quoted from earlier work in patent US20060094833A1, “Shock resistant cyanoacrylate compositions” (LOCTITE (R&D) LIMITED, priority 2004, published 2006).
# Settings: for pKa 1: first acid group; for pKa 4: fourth; for pKa 2: second acid group; for pKa 3: third acid group
pKa 1,pKa 4,pKa 2,pKa 3,SMILES
2.65,,,,CC(=O)C(=O)O [Pyruvic acid]
4.31,,4.82,5.21,"O=C(O)CC(CC(=O)O)C(=O)O [1,2,3-Propane tricarboxylic acid]"
,5.80,2.71,4.97,"O=C(O)c1cc(C(=O)O)c(C(=O)O)cc1C(=O)O [1,2,4,5-Benzene tetracarboxylic acid]"
,,3.83,,"O=C(O)c1ccc(C(=O)O)c(C(=O)O)c1 [1,2,4-Benzene tricarboxylic acid]"
2.97,,4.34,4.99,"O=C(O)C=C(CC(=O)O)C(=O)O [1,2,3-Propene tricarboxylic acid]"

# The next lines start with the compound.
SMILES,pKa 1,pKa 4,pKa 2,pKa 3
"O=C(O)c1ccc2c(c1)C(=O)OC2=O [1,2,4-Benzene tricarboxylic anhydride]",3.33,,,
O=C(O)CC(O)(CC(=O)O)C(=O)O [Citric acid],2.93,16.13,4.23,5.09
"O.O=C(O)c1cccc(C(=O)O)c1C(=O)O [1,2,3-Benzene tricarboxylic acid hydrate]",2.52,,4.00,6.12
"O=C(O)CC(C(=O)O)C(CC(=O)O)C(=O)O (centres unmarked) [1,2,3,4-Butane tetracarboxylic acid]",3.25,6.54,4.51,5.02
